# Measurements published in publication PMC9407656 (Proceedings of the National Academy of Sciences of the …, 2022).
# Several values for one entry are separate records, joined by “and”; a condition that tells them apart may be missing. Equal values may be shown once. Read-outs that look alike come from different tables or passages of the source.
# Assays:
# B. malayi AVR-14B GluCl = target: T1, B. malayi AVR-14B GluCl (Brugia malayi, UniProt A0A0K0J2Q9); assay: Two-electrode voltage-clamp on Xenopus laevis oocytes expressing Bma-AVR-14B; conditions: for agonist activity (in words): tested at 1 mM; for direct activation as agonist (in words): 0.3 to 100 µM; for L-glutamate-mediated current response (mean ± SEM) / activation at 1000 µM / activation at 10000 µM: normalized to 10 mM L-glutamate
# T1 sequence (A0A0K0J2Q9 19-427): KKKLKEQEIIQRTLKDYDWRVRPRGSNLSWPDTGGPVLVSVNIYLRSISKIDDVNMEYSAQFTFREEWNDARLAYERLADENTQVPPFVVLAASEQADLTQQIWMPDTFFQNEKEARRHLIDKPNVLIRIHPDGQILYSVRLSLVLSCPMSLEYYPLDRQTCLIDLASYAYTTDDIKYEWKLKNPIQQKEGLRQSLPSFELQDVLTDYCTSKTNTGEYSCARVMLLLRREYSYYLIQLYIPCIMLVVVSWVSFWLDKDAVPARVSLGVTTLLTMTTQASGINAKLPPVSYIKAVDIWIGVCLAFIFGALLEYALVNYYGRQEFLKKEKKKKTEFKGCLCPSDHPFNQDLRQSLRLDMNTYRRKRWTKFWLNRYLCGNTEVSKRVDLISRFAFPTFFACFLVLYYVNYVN
# B. malayi = conditions: cited from earlier work; for gradual recovery from the paralytic effects: treated worms
# adult B. malayi worms = assay: Adult B. malayi worm motility; format: cell-based, Brugia malayi; conditions: for recovery from the motility paralysis: treated adult worms; for pIC50, inhibition of motility / IC50: 24 h exposure; for IC50: read-out: IC50, inhibition of motility
# [1] = test system: C. oncophora IVS AVR-14/GluClα3; conditions: IVM-sensitive strain; SI table ref 5; cited from earlier work
# [2] = test system: C. oncophora IVR AVR-14/GluClα3; conditions: IVM-resistant strain; SI table ref 5; cited from earlier work
# [3] = test system: H. contortus AVR-14B/GluClα3B; conditions: SI table ref 3, cited from earlier work
# [4] = test system: D. immitis AVR-14B/GluClα3B; conditions: cited from earlier work
# [5] = test system: C. elegans AVR-14B/GluClα3B; conditions: cited from earlier work
# [6] = coapplied with 30 mM L-glutamate
# [7] = read-out: IC50(female), motility, female B. malayi
# [8] = peak current normalized to 30 mM L-glutamate
compound,measurement,setting,value
N[C@H](C(=O)O)c1cc(O)no1 [ibotenate],normalized current response to agonist (mean ± SEM),"B. malayi AVR-14B GluCl; agonist 1 mM, normalized to 1 mM L-glutamate response",73.4 ± 2.5%
"CN[C@H](CC(=O)O)C(=O)O [NMDA, N-methyl-D-aspartic acid]",agonist activity (in words),B. malayi AVR-14B GluCl,failed to induce any measurable channel activity
"Cc1onc(O)c1CC(N)C(=O)O (stereo not drawn) [AMPA, α-amino-3-hydroxy-5-methyl-4-isoxazolepropionic acid]",agonist activity (in words),B. malayi AVR-14B GluCl,failed to induce any measurable channel activity
"NCCCC(=O)O [GABA, γ-amino butyric acid]",agonist activity (in words),B. malayi AVR-14B GluCl,inactive
N[C@@H](Cn1oc(=O)[nH]c1=O)C(=O)O [quisqualate],agonist activity (in words),B. malayi AVR-14B GluCl,failed to induce any measurable channel activity
"N#Cc1nn(-c2c(Cl)cc(C(F)(F)F)cc2Cl)c(N)c1[S+]([O-])C(F)(F)F (stereo not shown) [FIP, fipronil]",direct activation as agonist (in words),B. malayi AVR-14B GluCl,failed to produce direct activation
same,IC50,"B. malayi AVR-14B GluCl; IC50, inhibition of L-glutamate-gated current, coapplied with 30 mM L-glutamate",1.8 µM
same,"nH, inhibition of L-glutamate-gated current",B. malayi AVR-14B GluCl; [6],−1.3 ± 0.4
same,IC50,"B. malayi AVR-14B GluCl; pIC50, inhibition of L-glutamate-gated current, coapplied with 30 mM L-glutamate",2 µM
same,inhibition at 100 µM,B. malayi AVR-14B GluCl; read-out: inhibition of the glutamate response,~95%
c1ccc([C@H]2CN3CCSC3=N2)cc1 [levamisole],IC50,B. malayi; [7],0.01 µM
same,gradual recovery from the paralytic effects,B. malayi,3 to 4 h
N[C@@H](CC(=O)O)C(=O)O [L-aspartate],agonist activity (in words),B. malayi AVR-14B GluCl,failed to induce any measurable channel activity
"CCN(CC)C(=O)N1CCN(C)CC1 [DEC, diethylcarbamazine]",IC50,"B. malayi; read-out: IC50, motility, B. malayi",4.4 µM
same,gradual recovery from the paralytic effects,B. malayi,3 to 4 h
picrotoxin [PTX],inhibition of the glutamate response,"B. malayi AVR-14B GluCl; 100 µM, 30 mM L-glutamate",failed to completely block
same,direct activation as agonist (in words),B. malayi AVR-14B GluCl,failed to produce direct activation
same,"nH, inhibition of L-glutamate-gated current",B. malayi AVR-14B GluCl; [6],−1.2 ± 0.6
same,"pIC50, inhibition of L-glutamate-gated current",B. malayi AVR-14B GluCl; [6],4.5 ± 0.2
same,IC50,"B. malayi AVR-14B GluCl; read-out: IC50, inhibition of L-glutamate-gated current, coapplied with 30 mM L-glutamate",33.1 µM
C=C(C)[C@H]1CN[C@H](C(=O)O)[C@H]1CC(=O)O [kainate],agonist activity (in words),B. malayi AVR-14B GluCl,failed to induce any measurable channel activity
"C/C(=C\C=C\[C@]1(C)[C@@H](O)CC[C@@]2(C)[C@H]1CC[C@H]1Cc3c([nH]c4cc5c(cc34)C3=CC(C)(C)OC(C)(C)[C@H]3C5)[C@@]12C)C(=O)O [NA, Nodulisporic acid]",EC50,"B. malayi AVR-14B GluCl; EC50, direct activation (agonist), normalized to 30 mM L-glutamate",2.7 µM
same,"nH, potentiation (PAM) of L-glutamate response",B. malayi AVR-14B GluCl; in the presence of 30 µM L-glutamate,0.8 ± 0.4
same,increase in the mean AUC response of L-glutamate,B. malayi AVR-14B GluCl; in the presence of NA,approximately sevenfold increase
same,EC50,"B. malayi AVR-14B GluCl; pEC50, direct activation, peak current normalized to 30 mM L-glutamate",2.51 µM
same,"nH (Hill coefficient), direct activation",B. malayi AVR-14B GluCl; [8],1.6 ± 0.8
same,exposure required to produce a reduction in worm motility similar to IVM,adult B. malayi worms; adult worms,> 3 days
same,recovery from the motility paralysis,adult B. malayi worms,do not show any sign of recovery
"CC[C@H](C)[C@H]1O[C@]2(CC[C@@H]1C)C[C@@H]1C[C@@H](C/C=C(\C)[C@@H](O[C@H]3C[C@H](OC)[C@@H](O[C@H]4C[C@H](OC)[C@@H](O)[C@H](C)O4)[C@H](C)O3)[C@@H](C)/C=C/C=C3\CO[C@@H]4[C@H](O)C(C)=C[C@@H](C(=O)O1)[C@]34O)O2 [IVM, ivermectin]",EC50,[1],0.5 µM
same,EC50,[2],1.3 µM
same,direct activation of receptor (in words),B. malayi AVR-14B GluCl; 1 pM IVM,did not activate the Bma-AVR-14B receptor directly
same,effect on NA-mediated effects (in words),"B. malayi AVR-14B GluCl; 0.1 nM IVM, NA with 30 µM L-glutamate",eliminated the agonist as well as PAM effects of NA
same,L-glutamate-mediated current response (mean ± SEM),B. malayi AVR-14B GluCl; 100 µM L-glutamate in the presence of 0.1 nM IVM,1.3 ± 0.3%
same,L-glutamate-mediated current response (mean ± SEM),B. malayi AVR-14B GluCl; 1 mM L-glutamate in the presence of 0.01 nM IVM,34.2 ± 7.5%
same,L-glutamate-mediated current response (mean ± SEM),B. malayi AVR-14B GluCl; 1 mM L-glutamate in the presence of 0.1 nM IVM,4.0 ± 0.6%
same,L-glutamate-mediated current response (mean ± SEM),B. malayi AVR-14B GluCl; 10 mM L-glutamate in the presence of 0.01 nM IVM,70.3 ± 7.9%
same,L-glutamate-mediated current response (mean ± SEM),B. malayi AVR-14B GluCl; 10 mM L-glutamate in the presence of 0.1 nM IVM,7.7 ± 0.7%
same,"nH (Hill coefficient), direct activation",B. malayi AVR-14B GluCl; [8],0.3 ± 0.1 and 0.3 ± 0.2
same,"pEC50, direct activation",B. malayi AVR-14B GluCl; [8],8.7 ± 1.2
same,"pIC50, inhibition of motility",adult B. malayi worms; adult female worms,5.9 ± 0.4
same,"pIC50, inhibition of motility",adult B. malayi worms; adult male worms,4.9 ± 0.2
same,IC50,adult B. malayi worms; adult female worms,1.1 µM
same,IC50,adult B. malayi worms; adult male worms,11.6 µM
same,recovery from the motility paralysis,adult B. malayi worms,do not show any sign of recovery
same,EC50,[3]; read-out: estimated EC50,~0.0001 µM
N[C@@H](CCC(=O)O)C(=O)O [L-glutamate],EC50,[1],29.7 µM
same,EC50,[2],96.1 µM
same,time constant of desensitization (τ),B. malayi AVR-14B GluCl; 3 µM L-glutamate,1.3 ± 0.3 s
same,reversal potential (Erev) of glutamate-gated currents,"B. malayi AVR-14B GluCl; 1 mM L-glutamate, −80 to +20 mV",−28.9 ± 2.9 mV
same,time constant of desensitization (τ),B. malayi AVR-14B GluCl; 30 mM L-glutamate,0.6 ± 0.1 s
same,"nH (Hill coefficient), direct activation",B. malayi AVR-14B GluCl; [8],0.8 ± 0.3
same,activation at 1000 µM,"B. malayi AVR-14B GluCl; read-out: L-glutamate-mediated current response (mean ± SEM), 1 mM L-glutamate alone, 0.01 nM IVM experiment",54.3 ± 9.2%
same,activation at 1000 µM,"B. malayi AVR-14B GluCl; read-out: L-glutamate-mediated current response (mean ± SEM), 1 mM L-glutamate alone, 0.1 nM IVM experiment",52.8 ± 3.3%
same,activation at 10000 µM,"B. malayi AVR-14B GluCl; read-out: L-glutamate-mediated current response (mean ± SEM), 10 mM L-glutamate alone, 0.01 nM IVM experiment",100%
same,activation at 10000 µM,"B. malayi AVR-14B GluCl; read-out: L-glutamate-mediated current response (mean ± SEM), 10 mM L-glutamate alone, 0.1 nM IVM experiment",100%
same,EC50,[4],~1000 µM
same,EC50,[3],27.6 µM
same,EC50,[5],2200 µM
"NCC(=O)O [Glycine, glycine]",agonist activity (in words),B. malayi AVR-14B GluCl,inactive
CC(C)C[C@H]1C(=O)O[C@H](Cc2ccc(N3CCOCC3)cc2)C(=O)N(C)[C@@H](CC(C)C)C(=O)O[C@H](C)C(=O)N(C)[C@@H](CC(C)C)C(=O)O[C@H](Cc2ccc(N3CCOCC3)cc2)C(=O)N(C)[C@@H](CC(C)C)C(=O)O[C@H](C)C(=O)N1C [emodepside],IC50,B. malayi; [7],0.801 µM
same,IC50,"B. malayi; read-out: IC50(male), motility, male B. malayi",0.176 µM
